Results reported in patent US12539279B2, “Supramolecular ionizable lipid molecules with heteroatomic tuning for nucleic acid delivery” (priority 2023, dated 2026).

Experiments:
THP-1 monocytes = type: cell-based, human; conditions: THP-1, 500 ng/well mRNA, 24 hours post-transfection
Description: THP-1 monocytes are human cells isolated from the peripheral blood of a patient with acute monocytic leukemia. […] Cells were plated at a density of 100,000 cells per well in a 96-well plate and transfected in quadruplicates with 500 ng/well of firefly luciferase mRNA formulated in lipid nanoparticles. Cell viability and firefly luciferase expression were determined after 24 hours with a plate reader assay, following the manufacturer's protocol (Promega E7110).

[1] = tested on: firefly luciferase protein expression; experiment: Intramuscular expression profile of formulated firefly luciferase mRNA in mice (IVIS); type: in vivo, BALB/c mice; conditions: intramuscular firefly luciferase mRNA-LNP
Description: All procedures used in animal studies conducted at the University of Toronto were approved by Institutional Animal Care and Use committee (IACUC) under protocol number 20012621 and comply with all applicable local, provincial, and federal regulations. Female BALB/c mice (7-8 weeks old) were purchased from Charles River Laboratories and acclimated for 1 to 2 weeks before initiation of the study.
Mice (n=4) were injected in both quadriceps with 0.5 μg of formulated firefly luciferase mRNA in 50 μL. At various timepoints (6 hours, 24 hours, 48 hours, and 96 hours post-dose), mice were injected intraperitoneally with 3 mg D-Luciferin (Thermo Scientific 88291) in 200 μL 1×PBS. 5 minutes later, mice were anesthetized and imaged on an in vivo imaging system (PerkinElmer, IVIS Spectrum) to measure total bioluminescent flux (photons/second) in each hindlimb (FIG. 2). The area under curve (AUC) for individual hindlimbs was determined with GraphPad Prism 9.

SMILES: CCCCCCCCCCN(CCCCCCCCCC)CCOC(=O)CCCN(CCO)CCCC(=O)OCCN(CCCCCCCCCC)CCCCCCCCCC [Compound I-3]
- cell viability / toxicity (THP-1 monocytes): significant cell death
- intramuscular expression (in words) [1]: higher intramuscular expression than DLin-MC3-DMA
